# Assay results taken from PubChem BioAssay (NCI).
#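 A five-concentration, 48-hour dose response in 96-well plates underlies each endpoint, interpolated linearly between surrounding concentrations. TGI: total growth inhibition.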
# What was measured:
# Assay in all cases: inhibition of tumour cell growth, NCI panel, 48 h
# T-47D breast = tested on: T-47D breast
# NCI-H226 lung = tested on: NCI-H226 lung
# RXF 393 renal = tested on: RXF 393 renal
# SF-539 CNS = tested on: SF-539 CNS
# M14 melanoma = tested on: M14 melanoma
# SW-620 colon = tested on: SW-620 colon
# UO-31 renal = tested on: UO-31 renal
# SR leukemia = tested on: SR leukemia
# MDA-N = tested on: MDA-N
# HCT-116 colon = tested on: HCT-116 colon
# SN12C renal = tested on: SN12C renal
# IGROV1 ovarian = tested on: IGROV1 ovarian
# MDA-MB-435 = tested on: MDA-MB-435
# K-562 leukemia = tested on: K-562 leukemia
# SF-295 CNS = tested on: SF-295 CNS
# DU-145 prostate = tested on: DU-145 prostate
# SNB-75 CNS = tested on: SNB-75 CNS
# NCI-H522 lung = tested on: NCI-H522 lung
# NCI-H23 lung = tested on: NCI-H23 lung
# HT29 colon = tested on: HT29 colon
# TK-10 renal = tested on: TK-10 renal
# UACC-62 melanoma = tested on: UACC-62 melanoma
# SF-268 CNS = tested on: SF-268 CNS
# MALME-3M melanoma = tested on: MALME-3M melanoma
# SK-MEL-5 melanoma = tested on: SK-MEL-5 melanoma
# HOP-62 NSCLC = tested on: HOP-62 NSCLC
# OVCAR-3 ovarian = tested on: OVCAR-3 ovarian
# SK-MEL-28 melanoma = tested on: SK-MEL-28 melanoma
# NCI-H460 lung = tested on: NCI-H460 lung
# OVCAR-8 ovarian = tested on: OVCAR-8 ovarian
# BT-549 breast = tested on: BT-549 breast
# KM12 colon = tested on: KM12 colon
# RPMI-8226 leukemia = tested on: RPMI-8226 leukemia
# HCT-15 colon = tested on: HCT-15 colon
# HS 578T breast = tested on: HS 578T breast
# SNB-19 CNS = tested on: SNB-19 CNS
# UACC-257 melanoma = tested on: UACC-257 melanoma
# COLO 205 colon = tested on: COLO 205 colon
# PC-3 prostate = tested on: PC-3 prostate
# OVCAR-4 ovarian = tested on: OVCAR-4 ovarian
# CAKI-1 renal = tested on: CAKI-1 renal
# SK-OV-3 ovarian = tested on: SK-OV-3 ovarian
# 786-0 renal = tested on: 786-0 renal
# HOP-92 NSCLC = tested on: HOP-92 NSCLC
# CCRF-CEM leukemia = tested on: CCRF-CEM leukemia
# HL-60(TB) leukemia = tested on: HL-60(TB) leukemia
# OVCAR-5 ovarian = tested on: OVCAR-5 ovarian
# A498 renal = tested on: A498 renal
# EKVX NSCLC = tested on: EKVX NSCLC
# U251 CNS = tested on: U251 CNS
# ACHN renal = tested on: ACHN renal
# MCF7 breast = tested on: MCF7 breast
# MOLT-4 leukemia = tested on: MOLT-4 leukemia
# A549 NSCLC = tested on: A549 NSCLC
# NCI/ADR-RES ovarian = tested on: NCI/ADR-RES ovarian
# MDA-MB-231 breast = tested on: MDA-MB-231 breast
# SK-MEL-2 melanoma = tested on: SK-MEL-2 melanoma
# HCC-2998 colon = tested on: HCC-2998 colon
# LOX IMVI melanoma = tested on: LOX IMVI melanoma
# DMS 114 small cell lung = tested on: DMS 114 small cell lung
# DLD-1 colon = tested on: DLD-1 colon
# KM20L2 colon = tested on: KM20L2 colon
# M19-MEL melanoma = tested on: M19-MEL melanoma
# DMS 273 small cell lung = tested on: DMS 273 small cell lung
# LXFL 529 NSCLC = tested on: LXFL 529 NSCLC
# HOP-18 NSCLC = tested on: HOP-18 NSCLC
compound,measurement,setting,value
Nc1nc(Cl)cc(NCC2(CO)CC(CCc3ccccc3)C2)n1 (stereo not drawn),TGI,T-47D breast,> 29.1 µM
same,TGI,NCI-H226 lung,> 100 µM
same,TGI,RXF 393 renal,> 100 µM
same,TGI,SF-539 CNS,> 100 µM
same,TGI,M14 melanoma,> 100 µM
same,TGI,SW-620 colon,> 100 µM
same,TGI,UO-31 renal,> 100 µM
same,TGI,SR leukemia,> 88.8 µM
same,TGI,MDA-N,> 100 µM
same,TGI,HCT-116 colon,> 100 µM
same,TGI,SN12C renal,> 100 µM
same,TGI,IGROV1 ovarian,> 100 µM
same,TGI,MDA-MB-435,> 100 µM
same,TGI,K-562 leukemia,> 100 µM
same,TGI,SF-295 CNS,> 100 µM
same,TGI,DU-145 prostate,> 100 µM
same,TGI,SNB-75 CNS,> 90.2 µM
same,TGI,NCI-H522 lung,> 100 µM
same,TGI,NCI-H23 lung,> 100 µM
same,TGI,HT29 colon,> 100 µM
same,TGI,TK-10 renal,> 100 µM
same,TGI,UACC-62 melanoma,> 100 µM
same,TGI,SF-268 CNS,> 100 µM
same,TGI,MALME-3M melanoma,> 100 µM
same,TGI,SK-MEL-5 melanoma,> 38.1 µM
same,TGI,HOP-62 NSCLC,> 100 µM
same,TGI,OVCAR-3 ovarian,> 100 µM
same,TGI,SK-MEL-28 melanoma,> 100 µM
same,TGI,NCI-H460 lung,> 100 µM
same,TGI,OVCAR-8 ovarian,> 100 µM
same,TGI,BT-549 breast,> 100 µM
same,TGI,KM12 colon,> 100 µM
same,TGI,RPMI-8226 leukemia,> 100 µM
same,TGI,HCT-15 colon,> 100 µM
same,TGI,HS 578T breast,> 100 µM
same,TGI,SNB-19 CNS,> 100 µM
same,TGI,UACC-257 melanoma,> 100 µM
same,TGI,COLO 205 colon,> 100 µM
same,TGI,PC-3 prostate,> 100 µM
same,TGI,OVCAR-4 ovarian,> 100 µM
same,TGI,CAKI-1 renal,> 100 µM
same,TGI,SK-OV-3 ovarian,> 100 µM
same,TGI,786-0 renal,> 100 µM
same,TGI,HOP-92 NSCLC,> 100 µM
same,TGI,CCRF-CEM leukemia,> 100 µM
same,TGI,HL-60(TB) leukemia,> 94.2 µM
same,TGI,OVCAR-5 ovarian,> 100 µM
same,TGI,A498 renal,> 100 µM
same,TGI,EKVX NSCLC,> 100 µM
same,TGI,U251 CNS,> 100 µM
same,TGI,ACHN renal,> 100 µM
same,TGI,MCF7 breast,> 100 µM
same,TGI,MOLT-4 leukemia,> 100 µM
same,TGI,A549 NSCLC,> 100 µM
same,TGI,NCI/ADR-RES ovarian,> 100 µM
same,TGI,MDA-MB-231 breast,> 100 µM
same,TGI,SK-MEL-2 melanoma,> 100 µM
same,TGI,HCC-2998 colon,> 100 µM
same,TGI,LOX IMVI melanoma,> 100 µM
C=CC1=CSNN1,TGI,RXF 393 renal,> 100 µM
same,TGI,SF-539 CNS,> 100 µM
same,TGI,M14 melanoma,> 100 µM
same,TGI,SW-620 colon,> 100 µM
same,TGI,DMS 114 small cell lung,> 100 µM
same,TGI,DLD-1 colon,> 100 µM
same,TGI,UO-31 renal,> 100 µM
same,TGI,HCT-116 colon,> 100 µM
same,TGI,SN12C renal,> 100 µM
same,TGI,IGROV1 ovarian,> 100 µM
same,TGI,K-562 leukemia,> 100 µM
same,TGI,KM20L2 colon,> 100 µM
same,TGI,SF-295 CNS,> 100 µM
same,TGI,SNB-75 CNS,> 100 µM
same,TGI,NCI-H522 lung,> 100 µM
same,TGI,NCI-H23 lung,> 100 µM
same,TGI,HT29 colon,> 100 µM
same,TGI,TK-10 renal,> 100 µM
same,TGI,UACC-62 melanoma,> 100 µM
same,TGI,SF-268 CNS,> 100 µM
same,TGI,MALME-3M melanoma,> 100 µM
same,TGI,SK-MEL-5 melanoma,> 100 µM
same,TGI,HOP-62 NSCLC,> 100 µM
same,TGI,OVCAR-3 ovarian,> 100 µM
same,TGI,SK-MEL-28 melanoma,> 100 µM
same,TGI,NCI-H460 lung,> 100 µM
same,TGI,M19-MEL melanoma,> 100 µM
same,TGI,OVCAR-8 ovarian,> 100 µM
same,TGI,KM12 colon,> 100 µM
same,TGI,RPMI-8226 leukemia,> 100 µM
same,TGI,HCT-15 colon,> 100 µM
same,TGI,SNB-19 CNS,> 100 µM
same,TGI,UACC-257 melanoma,> 100 µM
same,TGI,COLO 205 colon,> 100 µM
same,TGI,DMS 273 small cell lung,> 100 µM
same,TGI,OVCAR-4 ovarian,> 100 µM
same,TGI,CAKI-1 renal,> 100 µM
same,TGI,SK-OV-3 ovarian,> 100 µM
same,TGI,786-0 renal,> 100 µM
same,TGI,HOP-92 NSCLC,> 100 µM
same,TGI,CCRF-CEM leukemia,> 100 µM
same,TGI,HL-60(TB) leukemia,> 100 µM
same,TGI,OVCAR-5 ovarian,> 100 µM
same,TGI,A498 renal,> 100 µM
same,TGI,LXFL 529 NSCLC,> 100 µM
same,TGI,EKVX NSCLC,> 100 µM
same,TGI,U251 CNS,> 100 µM
same,TGI,ACHN renal,> 100 µM
same,TGI,MOLT-4 leukemia,> 100 µM
same,TGI,A549 NSCLC,> 100 µM
same,TGI,SK-MEL-2 melanoma,> 100 µM
same,TGI,HCC-2998 colon,> 100 µM
same,TGI,HOP-18 NSCLC,> 100 µM
same,TGI,LOX IMVI melanoma,> 100 µM
